US5449814A, “Lignan analogues, methods of preparation thereof and anti-hyperlipemic agents” (Shionogi & Co., Ltd., priority 1991, dated 1995)
Like-named read-outs stand apart in the source and are kept apart here.

Tests used:
cholesterol in serum = assay: Hypocholesterolemic effect in cholesterol-fed mice; type: in vivo, Male ICR mice; conditions: Mus musculus, po, 168 h, diet 1% cholesterol and 0.5% sodium cholate with 0.12% test compound, 7 days
Protocol: Hypocholesterolemic effect
Male ICR mice weighing 30 to 40 g were allowed to access to a diet containing 1% cholesterol and 0.5% sodium cholate supplemented with 0.12% of a test compound (no test compound in control group) ad libitum for 7 days. Then, the blood was taken and total cholesterol in serum was determined by the method of Allain (Clin. Chem., Vol. 20, 470 (1974)).
Total amount of VLDL cholesterol and LDL cholesterol was obtained by subtracting HLD cholesterol from total cholesterol. HLD cholesterol was quantified by the method of Ash and Hentschel et al. (Clin. Chem., Vol. 24, 2180 (1978)).
Hypocholesterolemic effect of a test compound was evaluated based on % reduction in cholesterol calculated using the equation shown below.

LDL = assay: Inhibitory effect on oxidative modification of LDL (copper-induced, TBA reactive substances); type: biochemical, New Zealand albino rabbits; conditions: rabbit LDL 0.2 mg protein/ml, 0.5 μM Cu^2+, 37° C., 24 hours; read-out: Inhibition of LDL oxidation IC50
Protocol: Inhibitory effect on oxidative modification of LDL
According to the method by Kita et al. (Proc. Natl. Acad. Sci., U.S.A, Vol. 84, 5928 (1987)), the experiment was proceeded as follows.
LDL was isolated from the blood of New Zealand albino rabbits fed with a diet containing 0.5% cholesterol for 3 weeks, and dissolved in phosphate-buffered physiological saline (final LDL concentration: 0.2 mg protein/ml). To this solution, each test compound in ethanol was added and then copper sulfate (final Cu^2+ concentration: 0.5 μM) was added thereto. The mixture was incubated at 37° C. for 24 hours.
After incubation, the content of lipid peroxides in each solution was determined as thiobarbituric acid reactive substances (TBA reactive substances). Concentration for 50% inhibition (IC50) was obtained from a linear regression curve of concentration of a compound versus % inhibition of oxidative modification of LDL. To quantify TBA reactive substances, proteins were removed from the solution after incubation, and the supernatant was examined for the content of TBA reactive substances by TBA method.

[1] = serum, read-out: Total Chol. reduction (%)
[2] = total minus HDL cholesterol, read-out: (VLDL + LDL) Chol. reduction (%)

Row | Compound | inhibition in vivo at 0.12 % in diet (cholesterol in serum; [1]) [%] | inhibition in vivo at 0.12 % in diet (cholesterol in serum; [2]) [%] | IC50 (LDL) [nM]
1 | COC(=O)c1c(C(=O)c2ccc(C(C)(C)C)cc2)c(O)c2cc(OC)c(OC)c(OC)c2c1-c1ccc(OC)c(OC)c1 [Example 30, 3-[4-(t-Butyl)benzoyl]-1-(3,4-dimethoxyphenyl)-4-hydroxy-2-methoxycarbonyl-6,7,8-trimethoxynaphthalene] | 7 | 44 | 2000
2 | COC(=O)c1c(C(=O)C(F)(F)C(F)(F)F)c(O)c2cc(OC)c(OC)c(OC)c2c1-c1ccc(OC)c(OC)c1 [Example 31, 1-(3,4-Dimethoxyphenyl)-4-hydroxy-2-methoxycarbonyl-3-(pentafluoro-1-oxopropyl)-6,7,8-trimethoxynaphthalene] | 15 | 41 | 850
3 | CCC(CC)CC(=O)c1c(C(=O)OC)c(-c2ccc(OC)c(OC)c2)c2cc3c(cc2c1O)OCCO3 [Example 36, 1-(3,4-Dimethoxyphenyl)-6,7-ethylenedioxy-3-(3-ethyl-1-oxopentyl)-4-hydroxy-2-(methoxycarbonyl)naphthalene] | 21 | 49 | 2210
4 | CCC(=O)c1c(C(=O)OC)c(-c2ccc(OC)c(OC)c2)c2cc(OC(C)C)c(OC(C)C)cc2c1O [Example 38, 6,7-Bis(2-propyloxy)-1-(3,4-dimethoxyphenyl)-4-hydroxy-2-methoxycarbonyl-3-(1-oxopropyl)naphthalene] | 26 | 61 | 2100
5 | COC(=O)c1c(C(=O)c2ccc(C(F)(F)F)cc2)c(O)c2cc(OC(C)C)c(OC(C)C)cc2c1-c1ccc(OC)c(OC)c1 [Example 40, 6,7-Bis(2-propyloxy)-1-(3,4-dimethoxyphenyl)-4-hydroxy-2-methoxycarbonyl-3-[4-(trifluoromethyl)benzoyl]naphthalene] | 23 | 56 | 4290
6 | CCC(=O)c1c(C(=O)OC)c(-c2ccc(OC)cc2OC)c2c(OC)c(OC)c(OC)cc2c1O [Example 41, 1-(2,4-Dimethoxyphenyl)-4-hydroxy-2-methoxycarbonyl-3-(1-oxopropyl)-6,7,8-trimethoxynaphthalene] | 11 | 41 | 17000
7 | CCC(CC)CC(=O)c1c(C(=O)OC)c(-c2ccc(OC)cc2OC)c2c(OC)c(OC)c(OC)cc2c1O [Example 42, 1-(2,4-Dimethoxyphenyl)-3-(3-ethyl-1-oxopentyl)-4-hydroxy-2-methoxycarbonyl-6,7,8-trimethoxynaphthalene] | 5 | 26 | 1680
8 | COC(=O)c1c(C(=O)c2ccc(C(F)(F)F)cc2)c(O)c2cc(OC)c(OC)c(OC)c2c1-c1ccc(OC)cc1OC [Example 43, 1-(2,4-Dimethoxyphenyl)-4-hydroxy-2-methoxycarbonyl-3-[4-(trifluoromethyl)benzoyl]-6,7,8-trimethoxynaphthalene] | 15 | 59 | 2120
9 | COC(=O)c1c(C(=O)c2ccc(C(F)(F)F)cc2)c(O)c2cc3c(cc2c1-c1ccc(OC)cc1OC)OCO3 [Example 46, 1-(2,4-Dimethoxyphenyl)-4-hydroxy-2-methoxycarbonyl-6,7-methylenedioxy-3-[4-(trifluoromethyl)benzoyl]naphthalene] | 5 | 47 | 6200
10 | CCC(=O)c1c(C(=O)OC)c(-c2ccc(OC)c(OC)c2)c2sc(CC)c(OC)c2c1O [Example 56, 7-(3,4-Dimethoxyphenyl)-2-ethyl-4-hydroxy-3-methoxy-6-methoxycarbonyl-5-(1-oxopropyl)benzo[b]thiophene] | 20 | 58 | 1280
11 | CCC(CC)CC(=O)c1c(C(=O)OC)c(-c2ccc(OC)c(F)c2)c2c(OC)c(OC)c(OC)cc2c1O [Example 61, 3-(3-Ethyl-1-oxopentyl)-1-(3-fluoro-4-methoxyphenyl)-4-hydroxy-2-methoxycarbonyl-6,7,8-trimethoxynaphthalene] | 11 | 43 | 4950
12 | COc1ccc(-c2c(C)c(C(=O)c3ccc(C(F)(F)F)cc3)c(O)c3cc(OC)c(OC)c(OC)c23)cc1OC [Example 62, 1-(3,4-dimethoxyphenyl)-4-hydroxy-2-methyl-3-[4-(trifluoromethyl)benzoyl]-6,7,8-trimethoxynaphthalene] | 27 | 59 | 8980
13 | COc1ccc(-c2c(C(F)(F)F)c(C(=O)c3ccc(C(F)(F)F)cc3)c(O)c3cc(OC)c(OC)c(OC)c23)cc1OC [Example 63, 1-(3,4-dimethoxyphenyl)-4-hydroxy-2-(trifluoromethyl)-3-[4-(trifluoromethyl)benzoyl]-6,7,8-trimethoxynaphthalene] | 20 | 53 | 2320
14 | CCC(CC)C(=O)c1c(C)c(-c2ccc(OC)c(OC)c2)c2c(OC)c(OC)c(OC)cc2c1O [Example 64, 1-(3,4-dimethoxyphenyl)-3-(2-ethyl-1-oxobutyl)-4-hydroxy-2-methyl-6,7,8-trimethoxynaphthalene] | 2 | 39 | 7100
15 | CCC(CC)C(=O)c1c(C(F)(F)F)c(-c2ccc(OC)c(OC)c2)c2c(OC)c(OC)c(OC)cc2c1O [Example 66, 1-(3,4-Dimethoxyphenyl)-3-(2-ethyl-1-oxobutyl)-4-hydroxy-2-(trifluoromethyl)-6,7,8-trimethoxynaphthalene] | 9 | 36 | 1470
16 | CCC(CC)CC(=O)c1c(C(=O)OC)c(-c2ccc(OC)c(OC)c2)c2c(OC)c(OC)c(OC)c(OC)c2c1O [Example 69, 1-(3,4-dimethoxyphenyl)-3-(3-ethyl-1-oxopentyl)-4-hydroxy-2-methoxycarbonyl-5,6,7,8-tetramethoxynaphthalene] | 10 | 16 | 2790
17 | CCC(CC)CC(=O)c1c(C(=O)OC)c(-c2ccc(OC)c(OC)c2)c2c(OC)c(OC)c(OC)c(CO)c2c1O [Example 71, 1-(3,4-dimethoxyphenyl)-3-(3-ethyl-1-oxopentyl)-4-hydroxy-5-hydroxymethyl-2-methoxycarbonyl-6,7,8-trimethoxynaphthalene] | 16 | 44 | 5960
18 | CCC(=O)c1c(C(=O)OC)c(-c2ccc(OC)c(OC)c2)c2c(OC)c(OC)c(OC)c(C)c2c1O [Example 72, 1-(3,4-dimethoxyphenyl)-3-(1-oxopropyl)-4-hydroxy-2-methoxycarbonyl-5-methyl-6,7,8-trimethoxynaphthalene] | 20 | 64 | 590
19 | CCC(=O)c1c(C(=O)OC)c(-c2ccc(OC)c(OC)c2)c2c(OC)c(OC)c(OC)c(OC)c2c1O [Example 73, 1-(3,4-dimethoxyphenyl)-3-(1-oxopropyl)-4-hydroxy-2-methoxycarbonyl-5,6,7,8-tetramethoxynaphthalene] | 13 | 60 | 2920
20 | CCC(=O)c1c(C(=O)OC)c(-c2ccc(OC)c(OC)c2)c2c(OC)c(OC)c(OC)c(COC)c2c1O [Example 74, 1-(3,4-dimethoxyphenyl)-3-(1-oxopropyl)-4-hydroxy-2-methoxycarbonyl-5-methoxymethyl-6,7,8-trimethoxynaphthalene] | 6 | 41 | 6560
21 | COC(=O)c1c(C(=O)C(C)C)c(O)c2c(C)c(OC)c(OC)c(OC)c2c1-c1ccc(OC)c(OC)c1 [Example 76, 1-(3,4-dimethoxyphenyl)-3-(2-methyl-1-oxo-propyl)-4-hydroxy-2-methoxycarbonyl-5-methyl-6,7,8-trimethoxynaphthalene] | 15 | 43 | 540
22 | COC(=O)c1c(C(=O)C(C)C)c(O)c2c(OC)c(OC)c(OC)c(OC)c2c1-c1ccc(OC)c(OC)c1 [Example 77, 1-(3,4-dimethoxyphenyl)-3-(2-methyl-1-oxopropyl)-4-hydroxy-2-methoxycarbonyl-5,6,7,8-tetramethoxynaphthalene] | 18 | 53 | 2550
